Measurements: ChEMBL document CHEMBL4482306, “Methods for inhibiting fascin” (2014)
Activity calls are given as the source filed them. The rule behind the calls is not given here.

How the values were obtained:
[1] = tested on: 4T1; assay: Antimigratory activity against mouse 4T1 cells assessed as inhibition of cell migration incubated for 6 hrs by crystal violet staining based Boyden-Chamber cell migration assay; type: functional; settings: 4T1, 6 h
[2] = tested on: 4T1; assay: Antitumor activity against mouse 4T1 cells implanted in Balb/c mouse mouse assessed as inhibition of breast tumor metastasis at 8 mg/kg dosed daily for 2 weeks starting 7 days post tumor cell implantation and measured on day 28 by 6-thioguanine clonogenic assay; type: functional, organism-based
[3] = biological target: Fascin (Homo sapiens) (UniProt Q16658); assay: Inhibition of GST-tagged recombinant human fascin 1 expressed in Escherichia coli BL21/DE3 assessed as average fiber thickness at 30 uM pre-incubated for 30 mins before polymerized actin addition and followed by Alexa fluro 488 phalloidin addition and measured after 1 hr under dark condition (reference value: 0.39 a.u)
[4] = tested on: 4T1; assay: Antitumor activity against mouse 4T1 cells implanted in Balb/c mouse mouse assessed as inhibition of breast tumor metastasis at 30 mg/kg dosed daily for 2 weeks starting 7 days post tumor cell implantation and measured on day 28 by 6-thioguanine clonogenic assay; type: functional, organism-based

| Structure (SMILES) | IC50 [1] | other results |
| --- | --- | --- |
| O=C1C(Sc2nc[nH]n2)=C/C(=N/S(=O)(=O)c2ccccc2)c2ccccc21 | > 30 µM |  |
| c1ccc(Nc2nc(-c3ccccc3)[n+](-c3ccccc3)s2)cc1 | > 50 µM |  |
| Cc1ccc(S(=O)(=O)Nc2cc(Sc3nc[nH]n3)c(O)c3ccccc23)c(C)c1 | > 30 µM |  |
| CCOc1ccc(S(=O)(=O)Nc2cc(Sc3nc[nH]n3)c(O)c3ccccc23)cc1 | > 20 µM |  |
| O=[N+]([O-])c1ccc(Cl)c(S(=O)(=O)Nc2nc3ccc(Cl)cc3s2)c1 |  | inhibition [2]: Active; Activity [3]: 0.35 a.u. |
| COc1ccc(S(=O)(=O)Nc2cc(Sc3nc[nH]n3)c(O)c3ccccc23)cc1 |  | inhibition [4]: Active |
